# According to article PMC11148078, “Potent activity of polymyxin B is associated with long-lived super-stoichiometric accumulation mediated by weak-affinity binding to lipid A” (Nature Communications, 2024):
# Entries after “also recorded” stand apart in the source; their conditions may differ. Like-named read-outs stand apart in the source and are kept apart here. Bridge positions count the residues as written; N and C are the ends. Square brackets hold non-standard residues; d marks the D form. Peptide text beside a SMILES is read from it. * marks the point of attachment. X1 = CC[C@H](C)CCCCC(=O)*; Dab = NCC[C@H](N)C(=O)O
# Columns and labels:
# [1] = tested on: E. coli WT+rifampicin; assay: Rifampicin potentiation / outer membrane permeability, wild-type E. coli; format: cell-based
# Description: (§1) Bacterial strains and plasmids are listed in SI Table S5. LB growth media was prepared according to manufacturer’s instructions and supplemented with 0.2% arabinose and carbenicillin (50 μg/mL) for the strains containing pBAD24-mcr1 plasmid. Cultures were started by inoculating 3 ml LB with 1–2 colonies from fresh overnight plates and grown at 37 °C until in log phase. Modified minimal inhibitory concentration (MIC) assays were performed in 96-well round bottom polystyrene plates (Corning) with a final volume of 100 µl in LB supplemented with tween-80 at 0.0005%. […] Polymyxin B sulfate (TCI Co. Ltd), polymyxin B nonapeptide (PMBN) (Sigma), and brevicidine (Genentech) were diluted directly in the assay plates. Bacteria were diluted in LB with tween-80 0.0005% and added to a final OD600 of 0.0005. Growth was measured via OD600 on a SpectraMax M5 plate reader after overnight static growth at 37 °C with humidity.
# [2] = tested on: E. coli PmrA^G53E+rifampicin; assay: Rifampicin potentiation / outer membrane permeability, E. coli PmrA^G53E; format: cell-based
# Description: as §1
# [3] = tested on: wild-type E. coli cells; assay: Whole cell SPR, wild-type E. coli; format: binding
# Description: Bacterial strains were grown in LB or LB with 0.2% arabinose and carbenicillin (50 μg/mL) to log phase (OD600 approximately 0.4–0.6), centrifuged for 10 min at 2500 × g (3500 rpm using a tabletop centrifuge), and re-suspended in PBS to a final OD600 of approximately 5. SPR on whole bacterial cells was performed and analyzed as described for OMVs on C1 chip, but with an additional carry-over wash prior to the capture. Regeneration of the chip after whole cell binding also required additional steps ([…] flow rate): (1) PBS supplemented with 32 mM MgCl2 for 120 s, (2) 2.5 M NaCl for 30 s, (3) 0.5% SDS (Desorb 1, Cytiva) for 60 s with carry over controls between.
# [4] = tested on: wt-OMVs; assay: TEM / cryo-EM of treated OMVs; parameters: species or system E. coli; conditions: ~0.5:1 compound to LPS
# Description: OMVs were incubated in OMV buffer (as above) plus 0.0005% tween-80 and then polymyxin B, PMBN, or an equal volume of OMV buffer, added for a final ratio of 0.5:1 polymyxin B (or PMBN) to LPS for either 1 min or 40 min. The amount of LPS in the OMV preparations was determined using fluorescently labeled LPS as described. LPS was quantified by addition of 20 µL of 4 µM dansyl-polymyxin B to 20 µL of sample or dilution series of LPS in PBS with 0.004% tween-80 and 5 mM EDTA in a while polypropylene 384-well plate (Thermo-Fisher). The plate was incubated for 30 min at room-temperature before reading the fluorescence intensity on a plate reader (Ex 340 nm, Em 495 nm, cutoff 475 nm). Concentration was interpolated using a standard curve. Log-phase bacteria were diluted to OD600 of 0.25 in 3 mL of LB supplemented with tween-80 before addition of 1 µL of 1 µM polymyxin B or PMBN and incubated statically at 37 °C. Samples were fixed at times indicated by addition of equal volume of 2x Karnovsky fix and stored at 4 °C. The suspensions were then adsorbed to the surface of formvar and carbon-coated standard TEM grids (75 mesh) for 15 min at room temperature, quickly rinsed in ultrapure water. OMVs were stained twice for 60 s with 2% aqueous uranyl acetate and bacteria were stained with uranyl-less stain (ready-to-use solution from Electron Microscopy Sciences) twice for 60 s. Excess staining solution was blotted off and grids were air dried. Imaging was with JEOL JEM-1400 transmission electron microscope (TEM) operated at 80 kV using magnification form 5000x to 100,000x. At least 20 images were taken for each sample. […]
# California USA, www.graphpad.com). […]
# Wild-type and polymyxin-resistant OMVs (pmrAG53E) were incubated with polymyxin B, PMBN, or an equal volume of buffer, as described for TEM imaging at a final ratio of 0.5:1 polymyxin B (or PMBN) to LPS for 20 min. To prepare samples for cryo-EM, 4 μL of each condition was applied to holey gold grids (UltrAuFoil 25 nm R 1.2/1.3; Quantifoil) which had been glow discharged for 20 sec with a Solarus plasma cleaner (Gatan). […]
SMILES,outer membrane permeabilization / rifampicin potentiation [1],"MIC in presence of rifampicin ([1]; rifampicin 1.56 µM, LB + 0.0005% tween-80, overnight 37 °C) [nM]",MIC in presence of rifampicin [2] [nM],SPR binding profile [3],effect on OMV morphology (words) [4],MIC in presence of rifampicin [1] [nM],outer membrane permeabilization / rifampicin potentiation [2],effect on OMV morphology (words) ([4]; listed as polymyxin B)
CC(C)C[C@@H]1NC(=O)[C@@H](Cc2ccccc2)NC(=O)[C@H](CCN)NC(=O)[C@@H](NC(=O)[C@H](CCN)NC(=O)[C@@H](N)[C@@H](C)O)CCNC(=O)[C@H]([C@@H](C)O)NC(=O)[C@H](CCN)NC(=O)[C@H](CCN)NC1=O [PMBN] (H-T[Dab][Dab][Dab][dF]L[Dab][Dab]T; lactam 3-C),still permeabilizes the outer membrane to rifampicin; also recorded: can still permeabilize the outer membrane,78,20000,"exhibited only weak, saw-tooth binding",less or no OMV clumping was observed,–,–,–
CC[C@H](C)CCCCC(=O)N[C@@H](CCN)C(=O)N[C@H](C(=O)N[C@@H](CCN)C(=O)N[C@H]1CCNC(=O)[C@H]([C@@H](C)O)NC(=O)[C@H](CCN)NC(=O)[C@H](CCN)NC(=O)[C@H](CC(C)C)NC(=O)[C@@H](Cc2ccccc2)NC(=O)[C@H](CCN)NC1=O)[C@@H](C)O [Polymyxin B] (X1-[Dab]T[Dab][Dab][Dab][dF]L[Dab][Dab]T; lactam 4-C (inferred); N-terminus assumed),–,–,1,same polymyxin B binding profiles were observed,led to clumping,<0.02,"still potentiated the activity of an antibiotic normally excluded by the outer membrane, rifampicin",exhibited vesiculation and tubules; also recorded: OMVs are perturbed by polymyxin B
